Source: ChEMBL document CHEMBL3045557, “A new benzil derivative from Derris scandens: Structure-insecticidal activity study” (2010)
The source made the active and inactive calls. The calls are words filed in the database; no cut-off is given here.

How the values were obtained:
Achaea janata [1] = experiment: Insecticidal activity against Achaea janata assessed as pupal mortality at 4 ug/larva administered through topical application; format: functional
Achaea janata [2] = experiment: Antifeedant activity against Achaea janata at 2 ug/cm2 by conventional no-choice disk method; format: functional, organism-based
Achaea janata [3] = experiment: Insecticidal activity against Achaea janata assessed as adult emergence at 4 ug/larva administered through topical application (reference value: 98.8 +/- 0.5 %); format: functional
Achaea janata [4] = experiment: Insecticidal activity against Achaea janata assessed as pupal duration at 4 ug/larva administered through topical application (reference value: 10.3 +/- 0.1 days); format: functional
Achaea janata [5] = experiment: Toxicity against Achaea janata after 24 hr by leaf disk method; format: functional
Achaea janata [6] = experiment: Insecticidal activity against Achaea janata assessed as pupal duration at 2 ug/larva administered through topical application (reference value: 10.3 +/- 0.1 days); format: functional
Achaea janata [7] = experiment: Antifeedant activity against Achaea janata by conventional no-choice disk method; format: functional
Achaea janata [8] = experiment: Insecticidal activity against Achaea janata assessed as larval mortality at 4 ug/larva administered through topical application; format: functional
Achaea janata [9] = experiment: Insecticidal activity against Achaea janata assessed as pupal weight at 2 ug/larva administered through topical application (reference value: 696.4 +/- 2.6 mg); format: functional
Achaea janata [10] = experiment: Insecticidal activity against Achaea janata assessed as adult emergence at 2 ug/larva administered through topical application (reference value: 98.8 +/- 0.5 %); format: functional
Achaea janata [11] = experiment: Insecticidal activity against Achaea janata assessed as pupal weight at 4 ug/larva administered through topical application (reference value: 696.4 +/- 2.6 mg); format: functional
Achaea janata [12] = experiment: Insecticidal activity against Achaea janata assessed as adult deformity at 2 ug/larva administered through topical application; format: functional
Achaea janata [13] = experiment: Insecticidal activity against Achaea janata assessed as adult deformity at 4 ug/larva administered through topical application; format: functional
Achaea janata [14] = experiment: Insecticidal activity against Achaea janata assessed as larval duration at 2 ug/larva administered through topical application (reference value: 7.3 +/- 0.1 days); format: functional
Achaea janata [15] = experiment: Antifeedant activity against Achaea janata at 10 ug/cm2 by conventional no-choice disk method; format: functional
Achaea janata [16] = experiment: Toxicity against Achaea janata at 10 ug/cm2 after 24 hr by leaf disk method; format: functional
Achaea janata [17] = experiment: Insecticidal activity against Achaea janata assessed as pupal mortality at 2 ug/larva administered through topical application; format: functional
Achaea janata [18] = experiment: Insecticidal activity against Achaea janata assessed as larval duration at 4 ug/larva administered through topical application (reference value: 7.3 +/- 0.1 days); format: functional
Achaea janata [19] = experiment: Antifeedant activity against Achaea janata at 1 ug/cm2 by conventional no-choice disk method; format: functional, organism-based
Achaea janata [20] = experiment: Insecticidal activity against Achaea janata assessed as larval mortality at 2 ug/larva administered through topical application; format: functional
Achaea janata [21] = experiment: Antifeedant activity against Achaea janata at 1.25 ug/cm2 by conventional no-choice disk method; format: functional
Achaea janata [22] = experiment: Insecticidal activity against Achaea janata assessed as larval mortality at 0.2 ug/larva administered through topical application; format: functional
Achaea janata [23] = experiment: Toxicity against Achaea janata at 1.25 ug/cm2 after 24 hr by leaf disk method; format: functional

Row | Compound | mortality (Achaea janata [1]) [%] | AFI (Achaea janata [2]) | Activity (Achaea janata [3]) [%] | Time (Achaea janata [4]) [days] | LD50 (Achaea janata [5]) | Time (Achaea janata [6]) [days] | ED50 (Achaea janata [7]) | mortality (Achaea janata [8]) [%] | Activity (Achaea janata [9]) [mg] | Activity (Achaea janata [10]) [%] | Activity (Achaea janata [11]) [mg] | Activity (Achaea janata [12]) [%] | Activity (Achaea janata [13]) [%] | Time (Achaea janata [14]) [days] | AFI (Achaea janata [15]) [%] | Activity (Achaea janata [16]) [%] | mortality (Achaea janata [17]) [%] | Time (Achaea janata [18]) [days] | AFI (Achaea janata [19]) | mortality (Achaea janata [20]) [%] | further results
1 | COc1c(CC=C(C)C)c2c(c(O)c1C(=O)C(=O)c1ccc(O)cc1)C=CC(C)(C)O2 | 31.6 | inactive | 6.7 | 13.5 | 3.56 microg/cm2 | 13 | 3.31 microg/cm2 | 39.3 | 524.4 | 34.5 | 515.4 | 16.2 | 19 | 7.8 | 96.8 | 100 | 20 | 8.5 | inactive | 15.1 | 
2 | C/C=C(\C)C(=O)O[C@H]1C[C@@H](OC(C)=O)[C@@]2(C(=O)OC)CO[C@H]3[C@@H](O)[C@@](C)([C@]45O[C@@]4(C)[C@@H]4C[C@H]5O[C@@H]5OC=C[C@@]54O)[C@H]4[C@]1(CO[C@]4(O)C(=O)OC)[C@@H]32 [AZADIRACHTIN A] | 0 |  | 98.8 | 10.3 | 0.67 microg/cm2 | 10.3 | 0.72 microg/cm2 |  | 696.4 | 98.8 | 696.4 | 0 | 0 |  |  |  | 0 |  |  |  | AFI (Achaea janata [21]): 100%; mortality (Achaea janata [22]): 100%; Activity (Achaea janata [23]): 100%
3 | COc1c2c(c(CC=C(C)C)c(O)c1C(=O)C(=O)c1ccc(O)cc1)OC(C)(C)C=C2 [Derrisdione A] | 36.2 | inactive | 29.8 | 12.5 | inactive | 10.9 | 7.18 microg/cm2 | 0 | 592.6 | 35.4 | 597.8 | 19.5 | 21.1 | 9.3 | 58.6 | 18.2 | 29.8 | 10.5 | inactive | 0 | 
4 | O=c1c(-c2ccc(O)cc2)coc2cc(O)cc(O)c12 [GENISTEIN] | 22.5 | inactive | 7.7 |  | 3.29 microg/cm2 | 13.1 | 3.22 microg/cm2 | 48.6 | 518 | 27 | 532 | 10.6 | 11.8 | 7.8 | 97.7 | 100 | 17.2 | 10.3 | inactive | 31 | 
5 | CC(C)=CCc1c2c(c(O)c3c(=O)cc(-c4ccc(O)cc4)oc13)C=CC(C)(C)O2 [LAXIFOLIN] | 27.4 | inactive | 24.9 | 14.1 | inactive | 10.7 | inactive | 25.2 | 567.2 | 59.6 | 552 | 0 | 2.3 | 8.5 | 2.6 | 0 | 12 | 11.1 | inactive | 20.6 | 
6 | CC(C)=CCc1cc(-c2coc3cc(O)c(CC=C(C)C)c(O)c3c2=O)ccc1O [LUPALBIGENIN] | 32.2 | inactive | 32.8 | 12.9 | inactive | 11.4 | inactive | 18.8 | 612 | 62.7 | 587 | 9.5 | 9.1 | 7.7 | 22.4 | 0 | 26.4 | 9.7 | inactive | 0 | 
7 | CC(C)=CCc1c2c(c3occ(-c4ccc(O)cc4)c(=O)c3c1O)C=CC(C)(C)O2 [OSAJIN] | 45.6 | inactive | 2.9 | 15.5 | 3.54 microg/cm2 | 13.8 | 3.18 microg/cm2 | 33.4 | 584.8 | 18 | 504.8 | 10 | 15.7 | 10.4 | 100 | 98.2 | 47.8 | 11.2 | inactive | 12.2 | 
8 | COc1ccc(-c2c(O)c3c(OC)c(CC=C(C)C)c4c(c3oc2=O)C=CC(C)(C)O4)cc1 [SCANDENIN A] | 32.8 | inactive | 31.5 | 10.5 | inactive | 10.5 | inactive | 15.2 | 601.2 | 71.5 | 605 | 0 | 6.6 | 9.3 | 4 | 0 | 19.8 | 11.1 | inactive | 11.6 | 
9 | COc1c(CC=C(C)C)c2c(c3oc(=O)c(-c4ccc(O)cc4)c(O)c13)C=CC(C)(C)O2 [SCANDENIN] | 24.8 | inactive | 18.6 | 11.3 | 5.28 microg/cm2 | 11.2 | 3.85 microg/cm2 | 42.6 | 550.8 | 75.3 | 514.2 | 0 | 10.9 | 8.2 | 96.5 | 86.4 | 13.5 | 10.8 | inactive | 0 | 
10 | COc1c(CC=C(C)C)c2c(c3occ(-c4ccc(O)cc4)c(=O)c13)C=CC(C)(C)O2 [SCANDINONE] | 23.4 | inactive | 34.2 | 12.5 | inactive | 11.8 | inactive | 17 | 621.8 | 65.3 | 592 | 3.5 | 5.4 | 8.2 | 1.3 | 14.6 | 13.6 | 10.5 | inactive | 6.8 | 
11 | C[C@@H]1O[C@@H](OC[C@H]2O[C@@H](Oc3cc(O)c4c(=O)c(-c5ccc(O)cc5)coc4c3)[C@H](O)[C@@H](O)[C@@H]2O)[C@H](O)[C@H](O)[C@H]1O [SPHAEROBIOSIDE] | 41.2 | inactive | 7.5 | 14.4 | 3.87 microg/cm2 | 13.3 | 3.37 microg/cm2 | 31.8 | 508.6 | 32.7 | 504.8 | 0 | 9.5 | 10.8 | 96.2 | 97.8 | 36 | 11.3 | inactive | 13 | 
12 | CC(C)=CCc1c2c(c(O)c3c(=O)c(-c4ccc(O)cc4)coc13)C=CC(C)(C)O2 [WARANGALONE] | 27.6 | inactive | 50.3 | 11.9 | inactive | 11.7 | inactive | 0 | 633.2 | 63.6 | 572.6 | 5.5 | 11.8 | 9.4 | 6.2 | 6.8 | 17.8 | 9.8 | inactive | 0 | 
